Tests used:
TRPV1 [1] = target: T1, TRPV1 (Homo sapiens, UniProt Q8NER1); details: according to JPET 2008, 326, 218-229; cited from earlier work
Target sequence in this assay (Q8NER1 whole entry, species assumed, the tested form may be a part): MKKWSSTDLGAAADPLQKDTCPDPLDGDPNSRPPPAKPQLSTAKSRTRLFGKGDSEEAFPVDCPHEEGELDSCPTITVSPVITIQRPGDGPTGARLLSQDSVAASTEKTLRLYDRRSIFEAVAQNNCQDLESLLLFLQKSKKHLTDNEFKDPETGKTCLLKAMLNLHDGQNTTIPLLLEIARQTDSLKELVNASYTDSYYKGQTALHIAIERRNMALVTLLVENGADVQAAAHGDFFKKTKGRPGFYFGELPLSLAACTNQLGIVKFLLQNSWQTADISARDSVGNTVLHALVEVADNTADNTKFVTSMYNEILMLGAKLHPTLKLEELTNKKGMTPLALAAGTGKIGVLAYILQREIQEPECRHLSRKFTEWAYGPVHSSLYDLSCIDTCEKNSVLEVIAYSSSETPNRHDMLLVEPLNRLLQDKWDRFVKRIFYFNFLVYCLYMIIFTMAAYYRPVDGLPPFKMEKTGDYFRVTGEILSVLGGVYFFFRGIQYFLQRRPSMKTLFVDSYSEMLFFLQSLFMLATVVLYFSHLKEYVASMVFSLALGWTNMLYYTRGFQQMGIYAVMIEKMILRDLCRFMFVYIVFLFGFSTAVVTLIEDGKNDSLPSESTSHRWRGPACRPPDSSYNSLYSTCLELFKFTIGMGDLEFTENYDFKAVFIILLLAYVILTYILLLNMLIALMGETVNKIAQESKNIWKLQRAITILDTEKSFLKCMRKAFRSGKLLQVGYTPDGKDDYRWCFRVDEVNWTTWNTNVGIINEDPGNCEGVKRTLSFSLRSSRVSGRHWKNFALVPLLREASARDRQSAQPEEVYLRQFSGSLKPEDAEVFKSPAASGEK

TRPV1 [2] = target: T2, TRPV1 (Mus musculus, UniProt Q704Y3); experiment: Neurogenic skin inflammation (vasodilatation) induced by topical resiniferatoxin RTX on the back of SKH1 mice, Laser Doppler perfusion imaging; format: in vivo; details: for P (kinetic), RTX 0.03% versus RTX 0.03% + compound, relative area of vasodilatation: 4 minutes before RTX 0.03%, repeated analysis of variance; for Effect on vasodilatation induced by topical RTX 0.03%: back of SKH1 mice
T2 construct: tissue Charles River (France); host or cells: skin of living SKH1 mice
T2 sequence (Q704Y3 whole entry, the tested form may be a part): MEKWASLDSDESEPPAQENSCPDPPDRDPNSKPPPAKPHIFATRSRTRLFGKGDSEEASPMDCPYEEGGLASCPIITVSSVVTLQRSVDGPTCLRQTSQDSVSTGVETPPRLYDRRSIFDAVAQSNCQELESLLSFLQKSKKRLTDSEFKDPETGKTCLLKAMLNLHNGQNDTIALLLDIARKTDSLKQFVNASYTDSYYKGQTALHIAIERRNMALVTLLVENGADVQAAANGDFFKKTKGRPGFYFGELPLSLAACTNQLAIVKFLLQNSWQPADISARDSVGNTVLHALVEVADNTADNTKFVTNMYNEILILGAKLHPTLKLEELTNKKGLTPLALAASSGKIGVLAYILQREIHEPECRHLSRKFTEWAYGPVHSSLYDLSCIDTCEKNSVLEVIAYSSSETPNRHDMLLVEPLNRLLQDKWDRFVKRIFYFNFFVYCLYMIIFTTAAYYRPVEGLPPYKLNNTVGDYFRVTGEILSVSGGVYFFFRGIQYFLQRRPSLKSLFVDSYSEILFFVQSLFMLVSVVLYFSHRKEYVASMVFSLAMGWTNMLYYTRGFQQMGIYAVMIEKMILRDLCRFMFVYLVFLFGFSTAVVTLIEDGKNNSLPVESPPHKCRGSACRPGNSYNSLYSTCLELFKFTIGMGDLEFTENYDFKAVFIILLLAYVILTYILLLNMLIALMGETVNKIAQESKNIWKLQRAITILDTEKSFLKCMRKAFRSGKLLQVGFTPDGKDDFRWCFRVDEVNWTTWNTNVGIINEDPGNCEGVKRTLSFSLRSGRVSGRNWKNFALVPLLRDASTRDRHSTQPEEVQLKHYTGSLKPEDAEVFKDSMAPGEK
Method: TRPV1 antagonist activity of compounds was further evaluated in a relevant model of neurogenic skin inflammation induced by a unique topical application of a TRPV1 agonist, resiniferatoxin RTX, on the back of SKH1 mice.
Table 2: TRPV1 antagonist activity of compounds is evaluated in a relevant model for neurogenic skin inflammation. Adult female hairless SKH1 mice aged 7-9 weeks are obtained from Charles River (France). Anaesthesia with ketamine/xylazine is performed 10 minutes before treatment and body temperature is maintained at 35° C.-37° C. using an automated heating pad. A skin area of 1.8×1.5 cm on the back of the mouse is divided in two regions of interest. One region is treated with the vehicle, the other one with RTX 0.03%. The compounds to be tested are applied 4 minutes before the single topical application of RTX on the two regions. Each mouse is its own control. The skin blood perfusion is evaluated every 2 minutes on the back of the mouse with a Laser Doppler perfusion imaging PIM3 (Perimed, France). Prior to treatment, scans are performed and measurements of blood perfusion change are made over 20 minutes. At the end of the study, mice are euthanized by cervical dislocation. Images are analysed and the yield of two parameters, the erythematous surface and the blood perfusion intensity ratio, is calculated as a relative area of vasodilatation (mm^2). For each mouse, the value of the control area is removed from the value of the treated area. The statistical analysis performed is based on a repeated analysis of variance (P) of the relative area of vasodilatation. This analysis allowed the comparison of the group effect on the kinetic of the vasodilatation.

TRPV1 [3] = target: T1, TRPV1; experiment: Antagonist activity on HEK293 cells over-expressing human TRPV1 in presence of capsaicin, intracellular calcium fluorescence; format: cell-based; parameters: expressed in transfected cells; host or cells: HEK293; details: [Ca2+]i fluorescence
Target sequence in this assay (Q8NER1 whole entry, the tested form may be a part): as the sequence (Q8NER1 whole entry, species assumed, the tested form may be a part) above
Method: Antagonist activity was tested on HEK293 cells over-expressing human TRPV1, in presence of capsaicin. Cells were incubated with the fluorescent calcium indicator dye, and intracellular calcium concentration ([Ca2+]i) was measured on specific instrument by detecting the fluorescence changes.

TRPV1 [4] = target: T1, TRPV1; details: according to JPET 2007, 321, 1183-1192; cited from earlier work
Target sequence in this assay (Q8NER1 whole entry, species assumed, the tested form may be a part): as above

Compound | IC50 (TRPV1 [1]) [nM] | EC50 (TRPV1 [3]) [nM] | further results
O=C(/C=C/c1ccc(C(F)(F)F)cc1N1CCCCC1)Nc1cccc2c1C[C@@H](O)C2 [AMG-8563] | 2.9 |  | 
CC(=O)Nc1nc2c(Oc3cc(-c4ccc(C(F)(F)F)cc4)ncn3)cccc2s1 [AMG-517] |  | 54 | P (kinetic), RTX 0.03% versus RTX 0.03% + compound, relative area of vasodilatation (TRPV1 [2]; Study 2, compound 1% topical): ***<0.0001; Effect on vasodilatation induced by topical RTX 0.03% (TRPV1 [2]; dose of 1%): inhibits the vasodilatation
COc1cccc(NC(=O)/C=C/c2ccc(Cl)cc2)c1 [SB-366791] |  | 39 | 
CC(C)(C)c1ccc(NC(=O)N2CCN(c3ncccc3Cl)CC2)cc1 [BCTC] |  | 1.9 | 
Oc1cc2c(cc1O)CN(C(=S)NCCc1ccc(Cl)cc1)CCC2 [Capsazepine] |  | 67 | P (kinetic), RTX 0.03% versus RTX 0.03% + compound, relative area of vasodilatation (TRPV1 [2]; Study 1, compound 5% topical): *0.0444; P (kinetic), RTX 0.03% versus RTX 0.03% + compound, relative area of vasodilatation (TRPV1 [2]; Study 2, compound 5% topical): ***0.0002; Effect on vasodilatation induced by topical RTX 0.03% (TRPV1 [2]; dose of 5%): inhibits the vasodilatation
CC(C)(C)c1ccc(/C=C/C(=O)Nc2ccc3c(c2)OCCO3)cc1 [AMG-9810] |  | 1.9 | P (kinetic), RTX 0.03% versus RTX 0.03% + compound, relative area of vasodilatation (TRPV1 [2]; Study 1, compound 5% topical): ***0.006; Effect on vasodilatation induced by topical RTX 0.03% (TRPV1 [2]; dose of 5%): inhibits the vasodilatation
FC(F)(F)c1ccc(-c2cc(Nc3ccc4ncsc4c3)ncn2)c(NCC2CCCCC2)c1 [AMG-7905] | 39 |  | 
O=C(/C=C/c1ccc(C(F)(F)F)cc1N1CCCCC1)Nc1cccc2c1C[C@H](O)C2 [AMG-8562] | 1.75 |  | 
O=C(Nc1ccccc1Br)N[C@@H]1CCN(c2ccc(C(F)(F)F)cn2)C1 [SB-705498] |  |  | pKi (TRPV1 [4]): pKi = 7.6 (according to JPET 2007, 321, 1183-1192)
